According to PMC8007834, “Anti-estrogenic and anti-aromatase activities of citrus peels major compounds in breast cancer” (Scientific Reports, 2021):
Values after ≈ are worked out from the molar mass of the structure shown.

Tests used:
MCF-7 = assay: SRB cytotoxicity assay on MCF7; assay type: cell-based, human; conditions: for IC50: Homo sapiens, MCF7, ± SD, read-out: IC50 values, cytotoxic effect on MCF7
Procedure: (§1) The assessment was performed in the National Cancer Institute in Egypt (NCI). The half maximal inhibitory concentration (IC50) values were then calculated from three independent experiments, three replicates each for each sample.

[1] = SRB cytotoxicity assay on normal HFB4 cells; assay type: cell-based, human; conditions: human, normal HFB4 cells, ± SD, read-out: IC50 values, cytotoxic effect on HFB4
Procedure: (§2) The cytotoxic activity of the ethanolic extracts of the peels along with the isolated major phenolics was tested against two human estrogen-dependent breast cancer cell lines, namely, MCF-7 and T47D, as well as the normal human HFB4 cells for assessment of toxicity, using the sulforhodamine B (SRB) assay. The assessment was performed in the National Cancer Institute in Egypt (NCI). The half maximal inhibitory concentration (IC50) values were then calculated from three independent experiments, three replicates each for each sample.

T47D = assay: SRB cytotoxicity assay on T47D; assay type: cell-based, human; conditions: ± SD; for IC50: Homo sapiens, T47D, read-out: IC50 values, cytotoxic effect on T47D
Procedure: as §1

uterine weight = test system: uterine weight; parameters: method as in PMID 25337190; conditions: cited from earlier work
[2] = test system: Immature female Swiss albino mice; assay: In vivo estrogenic activity assay; conditions: 30 mg/kg i.p.
Procedure: (§3) Immature female Swiss albino mice (8-13 g) were obtained from the animal house of the Faculty of Pharmacy, The British University in Egypt. All experimental procedures were conducted in compliance with the Animal Research: Reporting of In Vivo Experiments (ARRIVE) guidelines and the National Institutes of Health guide for the care and use of Laboratory animals (NIH Publication No. 85-23, revised 2011) and were approved by the Ethics Committee, Faculty of Pharmacy, The British University in Egypt (Ex-2101). All experiments were performed during the light phase of a light/dark cycle that was started 1 week after acclimatization. The room temperature was adjusted at 25 ± 2 °C. Mice had free access to food and water during the experiments. The experimental design was adopted from[27],[28]. The mice were randomly divided into 9 groups (7-8 mice each) as follows: Group 1: Negative control (NC) receiving only olive oil, s.c.; Group 2: […] For estrogenic activity, Group 3: Genistein phytoestrogen positive control (Gein.) treated group; Group 4: Quercetin (Qrt.) treated group; Group 5: Naringenin (Narn.) treated group and Group 6: Naringin (Nar.) treated group. For anti-estrogenic activity, estradiol was given after treatments by 6 h for Groups 7, 8 and 9 representing […]., respectively. All treatments including genistein were given at a dose of 30 mg/kg dissolved in Tween 80 (1%), i.p., for 7 days. The animals' weights were recorded daily to ensure the safety of the doses used. On the 7th day, the animals were sacrificed, the morphological appearance of the livers was observed, and the uteri were also isolated and weighed. The in vivo estrogenic and anti-estrogenic activities were assessed. The vaginal opening on each day of the study was checked as a sign of puberty. On the 7th day, vaginal swab was taken from the opened vagina to examine the cornification level under light microscope (4× lens). The uteri were excised and weighed after sacrification of mice under anesthesia.

Aromatase = Aromatase protein levels in EAC solid tumors (ELISA); assay type: in vivo, mice; conditions: for aromatase levels in tumors, lower than positive control group: ELISA on tumor homogenates, day 20, quercetin 100, naringenin 50, naringin 100 mg/kg i.p.
From the text: (§4) EAC cells were collected from the ascitic fluid of a female Swiss albino mouse bearing a 10-day old ascitic tumor where approximately 2.5 × 10^6 cells were transplanted, i.m. in the left thigh of female mice. When tumors became palpable (approximately 200–300 mm^3 in volume), treatment was initiated. Forty EAC-tumour bearing mice were randomly allocated into the following groups (n = 10): (1) PC group: positive control group that received only drug vehicle, (2) Qrt.-treated group: Mice were treated with a daily dose of 100 mg/kg of quercetin[30] i.p., (3) Narn.-treated group: Mice were treated with a daily dose of 50 mg/kg of naringenin, i.p.[31], and (4) Nar.-treated group: Mice were treated with a daily dose of 100 mg/kg of naringin, i.p.[32]. Treatment doses were given daily excluding Fridays and Saturdays. Tween 80 (1%) was used as a vehicle. Mice were sacrificed under brief anaesthesia at the 20th day after starting treatment and tumors were collected for further analysis.
Excised tumors were homogenized as 10% (w/v) in phosphate buffered saline. Aromatase concentration was then determined in tissue homogenates using Mouse Aromatase ELISA kit (MyBiosource, USA), according to the manufacturer’s instructions. Optical density equivalent to aromatase levels in samples was determined at 450 nm using a microplate reader.

[3] = test system: Ehrlich ascites carcinoma (EAC) solid tumor; assay: Ehrlich ascites carcinoma (EAC) solid tumor model, tumor volume; assay type: in vivo, mice; conditions: 19th day after treatment; quercetin 100, naringenin 50, naringin 100 mg/kg i.p. daily
From the text: as §4, with “In order to evaluate the anticancer effect of the active isolates (quercetin, naringenin and naringin) and their potential to decrease aromatase levels in tumours, an animal model of Ehrlich ascites carcinoma (EAC) solid tumour was used followed by aromatase ELISA assay as will be described later. Swiss albino female mice (20-25 g) were used for the experiment. EAC cells” for “EAC cells”, “palpable (approximately 200-300 mm^3 in” for “palpable (approximately 200–300 mm^3 in”, “Nar.-treated group: […] Treatment doses” for “Nar.-treated group: Mice were treated with a daily dose of 100 mg/kg of naringin, i.p.[32]. Treatment doses”, “further analysis. Tumor volume was calculated using a digital caliper at days 0, 4, 7, 10, 13, 16, and 19 after treatment, according to the following equation[33]: […]” for “further analysis.”

[4] = test system: Immature female Swiss albino mice; assay: In vivo anti-estrogenic activity assay (with estradiol); conditions: for reversal of estradiol-induced vaginal cornification / reduction in uterine weight compared to estradiol alone: 30 mg/kg i.p. plus estradiol; for reduction in uterine weight compared to estradiol alone: 7 days; for day on which vaginal opening reached 100% / day on which vaginal opening started (delay up to day): flavonoid 30 mg/kg i.p. plus estradiol 12.5 µg/kg s.c., estradiol alone as positive control
Procedure: as §3

[5] = parameters: method as in PMID 21964193; conditions: naringin 40 and naringenin 80 mg/kg, respectively; cited from earlier work
[6] = test system: estrogen-induced uterine weight; conditions: 30 mg/rat co-treated with estradiol (0.5 µg/rat); cited from earlier work
HFB4 cells = assay: SRB cytotoxicity assay on normal HFB4 cells; assay type: cell-based, human; conditions: ± SD
Procedure: as §2

Aromatase enzyme (CYP19) = target: T1, Aromatase enzyme (CYP19) (Homo sapiens, UniProt P11511); assay: In vitro aromatase inhibition assay (dibenzylfluorescein); assay type: biochemical; conditions: ± SD
T1 construct: purchased BD Biosciences, San Jose, CA
T1 sequence (P11511 1-503): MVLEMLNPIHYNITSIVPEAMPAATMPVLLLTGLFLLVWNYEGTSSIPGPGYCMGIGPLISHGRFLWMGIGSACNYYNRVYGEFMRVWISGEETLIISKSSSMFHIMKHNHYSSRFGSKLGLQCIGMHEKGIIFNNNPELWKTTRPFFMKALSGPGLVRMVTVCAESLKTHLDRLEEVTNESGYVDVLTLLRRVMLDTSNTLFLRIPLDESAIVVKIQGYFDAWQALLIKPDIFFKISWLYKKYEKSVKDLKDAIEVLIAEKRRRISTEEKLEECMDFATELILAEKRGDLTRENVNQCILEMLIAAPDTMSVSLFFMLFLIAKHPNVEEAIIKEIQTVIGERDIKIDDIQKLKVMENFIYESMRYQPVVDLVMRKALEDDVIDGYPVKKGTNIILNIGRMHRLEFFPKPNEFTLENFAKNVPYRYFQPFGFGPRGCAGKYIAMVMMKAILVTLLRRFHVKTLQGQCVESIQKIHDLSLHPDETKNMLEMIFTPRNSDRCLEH
Procedure: Aromatase inhibition was quantified by measuring the fluorescent intensity of fluorescein, the hydrolysis product of dibenzylfluorescein, by aromatase, as previously described[29]. In brief, the test substance (10 µL) was pre-incubated with the NADPH regenerating system (90 µL of 2.6 mM NADP^+, 7.6 mM glucose 6-phosphate, 0.8 U/mL glucose 6-phosphate dehydrogenase, 13.9 mM MgCl2, and 1 mg/mL albumin in 50 mM potassium phosphate, pH 7.4) for 10 min at 37 °C before 100 µL of the enzyme and substrate mixture [4 pmol/well enzyme (CYP19, BD Biosciences, San Jose, CA), 0.4 µM dibenzylfluorescein, and 4 mg/mL albumin in 50 mM potassium phosphate, pH 7.4] were added. Then, the reaction mixture was incubated for 30 min at 37 °C to allow aromatase to generate the product and quenched with 75 µL of 2 N NaOH. After the reaction was terminated, shaking was done for 5 min followed by incubation for 2 h at 37 °C to enhance the noise/background ratio, then fluorescence was measured at 485 nm (excitation) and 530 nm (emission). Three independent experiments were performed in duplicates, and the average values were used to construct the dose–response curves.

Row | SMILES | IC50 (MCF-7) [µg/mL] | IC50 [1] [µg/mL] | IC50 (T47D) [µg/mL] | average uterine weight ([2]; 7 days, no estradiol) [mg] | decrease in tumor volume compared to positive control [3] [%] | reversal of estradiol-induced vaginal cornification [4] | reduction in uterine weight compared to estradiol alone [4] [%] | day on which vaginal opening reached 100% [4] [days] | day on which vaginal opening started (delay up to day) [4] [days] | further results
1 | COc1ccc(-c2cc(=O)c3c(OC)c(OC)c(OC)c(OC)c3o2)cc1OC [C1, 5,6,7,8,3′,4′-hexamethoxy flavone] | > 50 | > 50 | > 50 | – | – | – | – | – | – | –
2 | O=c1c(O)c(-c2ccc(O)c(O)c2)oc2cc(O)cc(O)c12 [C2, 5,7,3′,4′-tetrahydroxy flavonol] | 2.11 ± 0.71 (≈ 6.98 µM) | > 50 | 1.81 ± 0.28 (≈ 5.99 µM) | 13.0 ± 3.0 | 61.71 | not fully reversed | 48 | 4 | 2 | effect on the uterine weight upon treatment with steroid (uterine weight; 10 mg/kg): anti-estrogenic effect; estrogenic effect at higher dose (uterine weight; 100 mg/kg): potent estrogenic effect; day on which vaginal opening started ([2]; 7 days, no estradiol): 6 days; reduction in aromatase levels as compared to naringenin (Aromatase; EAC tumors, ELISA): 26.4%; reduction in aromatase levels as compared to naringin (Aromatase; EAC tumors, ELISA): 32%; aromatase levels in tumors, lower than positive control group (Aromatase): 72.35%
3 | COc1ccc(-c2cc(=O)c3c(O)cc(O[C@@H]4O[C@H](CO[C@@H]5O[C@@H](C)[C@H](O)[C@@H](O)[C@H]5O)[C@@H](O)[C@H](O)[C@H]4O)cc3o2)cc1O [C3, 5,3′-dihydroxy-4′-methoxy flavone-7O-α-L-rhamnopyranosyl (1 → 6)β-D-glucopyranoside] | > 50 | > 50 | > 50 | – | – | – | – | – | – | –
4 | O=C1CC(c2ccc(O)cc2)Oc2cc(O)cc(O)c21 (centres unmarked) [C4, 5,7,4′-trihydroxy flavanone] | 1.12 ± 0.09 (≈ 4.11 µM) | > 50 | 1.93 ± 0.07 (≈ 7.09 µM) | 16.0 ± 3.7 | 73.26 | not fully reversed | 58 | 7 | 5 | estrogenic and anti-estrogenic activities [5]: double directional estrogenic and anti-estrogenic activities; effect on estrogen-induced uterine weight [6]: significant decrease in estrogen-induced uterine weight
5 | COc1ccc([C@@H]2CC(=O)c3c(O)cc(O[C@@H]4O[C@H](CO[C@@H]5O[C@@H](C)[C@H](O)[C@@H](O)[C@H]5O)[C@@H](O)[C@H](O)[C@H]4O)cc3O2)cc1O [C5, 5,3′-dihydroxy-4′-methoxy flavanone-7O-α-L-rhamnopyranosyl (1 → 6)β-D-glucopyranoside] | – | – | – | – | – | – | – | – | – | IC50 values, cytotoxic effect on MCF7 (MCF-7; ± SD): – ((−) no activity in a concentration up to 50 µg/mL); IC50 values, cytotoxic effect on HFB4 (HFB4 cells): – ((−) no activity in a concentration up to 50 µg/mL); IC50 values, cytotoxic effect on T47D (T47D): – ((−) no activity in a concentration up to 50 µg/mL)
6 | COc1ccc(C2CC(=O)c3c(O)cc(O)cc3O2)cc1O (centres unmarked) [C6, 5,7,3′-trihydroxy-4′-methoxy flavanone] | 4.96 ± 0.89 (≈ 16.4 µM) | > 50 | 3.53 ± 0.19 (≈ 11.7 µM) | – | – | – | – | – | – | –
7 | C[C@@H]1O[C@@H](OC[C@H]2O[C@@H](Oc3c(-c4ccc(O)c(O)c4)oc4cc(O)cc(O)c4c3=O)[C@H](O)[C@@H](O)[C@@H]2O)[C@H](O)[C@H](O)[C@H]1O [C7, 5,7,3′,4′-tetrahydroxy flavon-3O-α-L-rhamnopyranosyl (1 → 6)β-D-glucopyranoside] | > 50 | > 50 | > 50 | – | – | – | – | – | – | –
8 | C[C@@H]1O[C@@H](O[C@H]2[C@H](Oc3cc(O)c4c(c3)O[C@H](c3ccc(O)cc3)CC4=O)O[C@H](CO)[C@@H](O)[C@@H]2O)[C@H](O)[C@H](O)[C@H]1O [C8] | 2 ± 0.98 (≈ 3.45 µM) | > 50 | 3.63 ± 0.1 (≈ 6.25 µM) | 17.0 ± 2.6 | 71.47 | not fully reversed | 57.7 | 7 | 3 | aromatase levels in tumors, lower than positive control group (Aromatase): 59.36%; estrogenic and anti-estrogenic activities [5]: double directional estrogenic and anti-estrogenic activities; IC50 (Aromatase enzyme (CYP19)): 3.26 µM
9 | C[C@]12CC[C@@H]3c4ccc(OC(=O)c5ccccc5)cc4CC[C@H]3[C@@H]1CC[C@@H]2O [estradiol, Estradiol benzoate, reference compound] | – | – | – | – | – | – | – | 5 | 2 | body weight ([4]; 7 days treatment): 15.6 ± 1.8 g; uterine weight ([4]; estradiol alone 12.5 µg/kg s.c.): 215.0 ± 64.4 mg
10 | O=c1c(-c2ccc(O)cc2)coc2cc(O)cc(O)c12 [genistein, reference compound] | – | – | – | 20.0 ± 7.5 | – | – | – | – | – | vaginal cornification ([2]; day 7 swab): mild vaginal cornification
